Literature values, collected in patent US20080253966A1, “Diagnostic, Prognostic, and Therapeutic Factor Smac/Diablo in Human Cancer” (The Regents of The University of California, priority 2004, published 2008).

Test system: cell lines treated with paclitaxel, etoposide, camptothecin, and doxorubicine

For “first four amino acids of Smac/DIABLO: the first four amino acids of Smac/DIABLO (Arnt et al., J. Biol. Chem. 2002) (AVPI; UniProt Q9NR28 56-59, looked up, fragment)”, the effect on apoptosis is listed as “increased apoptosis”.
